Test system: cholesterol esterase
Assay: Inhibitory effects of various substances on the enzyme activity
Format: biochemical, Pseudomonas fluorescens
Conditions: not given

Row | Structure (SMILES) | activity of the enzyme inhibited by heavy metal ions
1 | O=[N+]([O-])[O-].[Ag+] [AgNO3] | inhibited
2 | O=S(=O)([O-])[O-].[Cu+2] [CuSO4] | inhibited
3 | [Cl][Hg][Cl] [HgCl2] | inhibited

Same assay, conditions: 0.1 ml of 4 mM solution of the substance added, kept at 37° C for 15 minutes; substrate cholesterol linoleate, 37° C for 10 minutes; ratio of residual to initial cholesterol linoleate

Row | Inhibition ratio (%) | Structure (SMILES)
4 | 0 | O=C(O)CN(CCN(CC(=O)O)CC(=O)O)CC(=O)O [Ethylenediaminetetraacetic acid]
5 | 0 | c1cnc2c(c1)ccc1cccnc12 [o-Phenanthroline]

Same assay, conditions: cholesterol esterase, 4000 µM

Row | Structure (SMILES) | Inhibition ratio (%)
6 | c1ccc(-c2ccccn2)nc1 [2,2'-Dipyridyl] | 0
7 | O=[N+]([O-])[O-].[Ag+] [AgNO3] | 20
8 | [Ba+2].[Cl-].[Cl-] [BaCl2] | 0
9 | [Ca+2].[Cl-].[Cl-] [CaCl2] | 0
10 | O=S(=O)([O-])[O-].[Cu+2] [CuSO4] | 100
11 | O=S(=O)([O-])[O-].[Fe+2] [FeSO4] | 0
12 | [Cl][Hg][Cl] [HgCl2] | 100
13 | [Cl][Mn][Cl] [MnCl2] | 0
14 | [Cl-].[Cl-].[Zn+2] [ZnCl2] | 0
15 | O=C(O)c1cc[c]([Hg][Cl])cc1 [p-Chloromercuri benzoic acid (p-CMB), p-Chloromercuri benzoic acid] | 0

Test system: cholesterol esterase
Assay: Substrate specificity: relative activity of cholesterol esterase on cholesterol esters
Format: biochemical, Pseudomonas fluorescens
Conditions: activity on cholesterol linoleate defined as 100; 37° C, 30 minutes, pH 7.5
Protocol: The determination of the enzyme activity on cholesterol linoleate is carried out by the following method.
A mixture having the following composition is prepared and shaken at 37° C for 30 minutes. […]
During the above-described operation, the substrate cholesterol linoleate is hydrolyzed by the action of cholesterol esterase into cholesterol and linoleic acid, and subsequently the formed cholesterol is oxidized to cholestenone by the action of cholesterol oxidase. After 30 minutes of shaking, the mixture is immediately subjected to the determination of residual unreacted cholesterol linoleate by Zurkowsky's method [Clinical Chemistry 10, 451 (1964)]. Then, the amount of the reacted cholesterol linoleate is calculated. The enzyme activity is expressed by "unit." A "unit" of enzyme activity is defined as that amount of enzyme which will decompose 1 μmole of cholesterol linoleate in 1 minute under the above-described conditions. The enzyme activities on other cholesterol esters are variable depending upon the kind of substrates and are determined in the similar manner.

Row | Structure (SMILES) | Relative activity
16 | CC(=O)O[C@H]1CC[C@@]2(C)C(=CC[C@H]3[C@@H]4CC[C@H]([C@H](C)CCCC(C)C)[C@@]4(C)CC[C@@H]32)C1 [Cholesterol acetate] | 80
17 | CCCCC/C=C\C/C=C\CCCCCCCC(=O)O[C@H]1CC[C@@]2(C)C(=CC[C@H]3[C@@H]4CC[C@H]([C@H](C)CCCC(C)C)[C@@]4(C)CC[C@@H]32)C1 [Cholesterol linoleate] | 100
18 | CCCCCCCC/C=C\CCCCCCCC(=O)O[C@H]1CC[C@@]2(C)C(=CC[C@H]3[C@@H]4CC[C@H]([C@H](C)CCCC(C)C)[C@@]4(C)CC[C@@H]32)C1 [Cholesterol oleate] | 93
19 | CCCCCCCCCCCCCCCC(=O)O[C@H]1CC[C@@]2(C)C(=CC[C@H]3[C@@H]4CC[C@H]([C@H](C)CCCC(C)C)[C@@]4(C)CC[C@@H]32)C1 [Cholesterol palmitate] | 26
20 | CCCCCCCCCCCCCCCCCC(=O)O[C@H]1CC[C@@]2(C)C(=CC[C@H]3[C@@H]4CC[C@H]([C@H](C)CCCC(C)C)[C@@]4(C)CC[C@@H]32)C1 [Cholesterol stearate] | 58

Test system: Pseudomonas fluorescens KY 3955 (FERM-P No. 2611) ATCC 31156
Assay: Cholesterol esterase activity of culture filtrates with fatty acids or fatty acid esters added to the fermentation medium
Format: cell-based
Conditions: additive at 5 g/l in soybean meal fermentation medium, 30° C for 24 hours; None = 20

Row | Structure (SMILES) | Activity (cholesterol esterase activity of culture filtrate) [unit/l]
21 | CCCCC/C=C\C/C=C\CCCCCCCC(=O)O [linoleic acid] | 310
22 | CCCCCCCC/C=C\CCCCCCCC(=O)O [oleic acid] | 170
23 | CCCCCCCCCCCCCCCCCC(=O)O [stearic acid] | 230
24 | CCCCC/C=C\C/C=C\CCCCCCCC(=O)OCC(COC(=O)CCCCCCC/C=C\C/C=C\CCCCC)OC(=O)CCCCCCC/C=C\C/C=C\CCCCC [trilinolein] | 250
25 | CCCCCCCC/C=C\CCCCCCCC(=O)OCC(COC(=O)CCCCCCC/C=C\CCCCCCCC)OC(=O)CCCCCCC/C=C\CCCCCCCC [triolein] | 200

Source: US4011138A, “Process for the preparation of cholesterol esterase” (Kyowa Hakko Kogyo Co., Ltd., priority 1974, dated 1977)
